Test [1] has as its system indomethacin-induced acute gastric ulcers. As to the kind of experiment: Protection studies of gastric ulceration in vivo (indomethacin-induced acute gastric ulcer, ulcer index). Conditions: Mus musculus, indomethacin 80 mg/kg, Balb/c mice; for inhibition in vivo at 50 mg/kg: 50 mg/kg body weight oral in olive oil, scored after 4 h. Also on record: species or system Balb/c mice. How it is done: Animal experiments were carried out using Balb/c mice (20-25 g). Animals were anesthetized with ketamine (12 mg/kg b.w.) prior to cervical dislocation. Control and experimental animals were fasted for 6 hr with free access to water.
Balb/c mice (20-25 g) bred in-house with free access to food and water was used for all experiments. Experiments were designed to minimize animal suffering and to use the minimum number associated with valid statistical evaluation. Animals were anesthetized with ketamine (12 mg/kg b.w.) followed by cervical dislocation. Animal experiments were carried out following the guidelines of animal ethics committee of the institute. Control and experimental animals were fasted for 6 h with free access to water.
Before ulcer induction, animals of both control and experimental groups were kept separately in standard controlled conditions. Acute gastric ulcers were induced by oral administration of indomethacin at a dose of 80 mg/kg b.w. The control group received the vehicle only (olive oil), whereas the experimental group received indomethacin for gastric ulceration. After 4 h, the animals were sacrificed and gastric lesions in the fundic stomach were scored and expressed as obtained by counting the number of red bands/dots as follows: 0=no pathology; 1=a small pinhead ulcer spot; and 2-5=a band like lesion of 2-5 mm length. Total score become ˜50 when ulcer is severe. The sum of the total scores as divided by the number of animals was expressed as the mean ulcer index. Formulations were administered orally 30 min prior to indomethacin treatment to check the gastroprotective effect. Among all the chemical compositions of 3-indolyl furanoids synthesized (table 1), compounds 1, 2, 5, 8, 9 and 12 were tested for prevention studies against gastric inflammation in vivo.

The next test addresses MMP-9 (Homo sapiens, UniProt P14780). The test is described as follows: In vitro analysis of anti-ulcer efficacy (structure-activity discussion). Conditions: method not described.

Here are results for ten compounds from patent publication US10590116B2, “3-indolyl furanoids as inhibitors of matrix metalloproteinase-9 for prevention of gastric ulcer and other inflammatory diseases” (Council of Scientific & Industrial Research, priority 2017, dated 2020).

Chain of MMP-9 (P14780 94-707, species assumed): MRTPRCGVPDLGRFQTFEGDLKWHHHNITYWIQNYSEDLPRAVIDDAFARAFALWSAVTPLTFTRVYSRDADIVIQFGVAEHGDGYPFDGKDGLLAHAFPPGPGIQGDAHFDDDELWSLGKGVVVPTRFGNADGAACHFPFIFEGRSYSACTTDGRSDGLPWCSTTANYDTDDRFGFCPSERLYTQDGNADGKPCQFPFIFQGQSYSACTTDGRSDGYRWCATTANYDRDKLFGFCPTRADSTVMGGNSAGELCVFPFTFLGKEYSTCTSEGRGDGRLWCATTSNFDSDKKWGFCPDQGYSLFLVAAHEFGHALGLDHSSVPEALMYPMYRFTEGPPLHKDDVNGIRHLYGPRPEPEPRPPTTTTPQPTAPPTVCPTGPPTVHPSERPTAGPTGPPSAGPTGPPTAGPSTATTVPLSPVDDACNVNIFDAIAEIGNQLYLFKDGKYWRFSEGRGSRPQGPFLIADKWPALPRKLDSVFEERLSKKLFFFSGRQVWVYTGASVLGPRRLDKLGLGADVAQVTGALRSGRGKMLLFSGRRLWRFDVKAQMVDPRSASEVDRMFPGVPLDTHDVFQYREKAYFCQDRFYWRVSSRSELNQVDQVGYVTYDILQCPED

Turning to `COc1ccc2[nH]c([S+]([O-])Cc3ncc(C)c(OC)c3C)nc2c1` (centres unmarked) [Omeprazole, reference compound], the inhibition in vivo (as a rule, the relative decrease from the control value, in per cent) at 12 mg/kg in test [1] (po, 4 h, 12 mg/kg body weight) was found to be 100%.

`COc1cccc2c1c(-c1cc(-c3ccccc3)oc1-c1ccccc1)cn2C` [compound 12, 4-methoxy-1-methyl-3-(2,5-diphenylfuran-3-yl)-1H-indole] showed an inhibition in vivo at 50 mg/kg in test [1] of 56%. In addition, the “anti-ulcer efficacy in vitro” value on MMP-9 was “not acceptable to have good anti-ulcer activity”.

In turn, `c1ccc(-c2cc(-c3c(-c4ccccc4)[nH]c4ccccc34)c(-c3ccccc3)o2)cc1` [compound 8, 2-phenyl-3-(2,5-diphenylfuran-3-yl)-1H-indole] gave an inhibition in vivo at 50 mg/kg in test [1] of 65%.

`COc1ccc2[nH]cc(-c3cc(-c4ccccc4)oc3-c3ccccc3)c2c1OC` [compound 6, 4,5-dimethoxy-3-(2,5-diphenylfuran-3-yl)-1H-indole] showed an inhibition in vivo at 50 mg/kg in test [1] of 74%.

For the compound `Cc1c(-c2cc(-c3ccccc3)oc2-c2ccccc2)c2ccccc2n1C` [compound 11, 1,2-dimethyl-3-(2,5-diphenylfuran-3-yl)-1H-indole], the “anti-ulcer efficacy in vitro” value at MMP-9 is “not acceptable to have good anti-ulcer activity”.

`C=CCOc1ccc2[nH]cc(-c3cc(-c4ccccc4)oc3-c3ccccc3)c2c1` [compound 3, 5-(allyloxy)-3-(2,5-diphenylfuran-3-yl)-1H-indole]: the “anti-ulcer efficacy in vitro” value on MMP-9 is on record as “moderate anti-ulcer efficacy”.

In test [1], `Oc1ccc2[nH]cc(-c3cc(-c4ccccc4)oc3-c3ccccc3)c2c1` [compound 1, 3-(2,5-diphenylfuran-3-yl)-1H-indol-5-ol] returned an inhibition in vivo at 50 mg/kg of 78%.

Compound `COc1ccc2[nH]cc(-c3cc(-c4ccccc4)oc3-c3ccccc3)c2c1` [compound 2, 3-(2,5-diphenylfuran-3-yl)-5-methoxy-1H-indole] came in with an inhibition in vivo at 50 mg/kg in test [1] of 83%.

Compound `Oc1ccccc1-c1[nH]c2ccccc2c1-c1cc(-c2ccccc2)oc1-c1ccccc1` [compound 9, 3-(2,5-diphenylfuran-3-yl)-2-(2-hydroxyphenyl)-1H-indole] had an inhibition in vivo at 50 mg/kg in test [1] of 72%.

On to `CCCOc1ccc2[nH]cc(-c3cc(-c4ccccc4)oc3-c3ccccc3)c2c1` [compound 4, 3-(2,5-diphenylfuran-3-yl)-5-propoxy-1H-indole], for which, on MMP-9, the “anti-ulcer efficacy in vitro” value is listed as “moderate anti-ulcer efficacy”.
